In brackets after ≈: the same amount, converted by molar mass. Marks after values point to notes of the source that are not given here.
Tests used:
[1] = tested on: E. fecalis; assay: MIC determination, E. fecalis; format: cell-based, Enterococcus fecalis
Procedure: (§1) Minimal Inhibitory Concentration (MIC) determinations. […] Each drug is evaluated at five concentrations, with five data points at each dilution. MIC values (μg/ml) were determined against actively growing cultures in Heart-Brain Infusion (HBI) medium. Cell growth in cultures supplemented with a test compound was calculated as a percent of control at OD 600 nm after 16 to 18 hours at 37° C.

[2] = tested on: S. aureus (Smith); assay: MIC determination, S. aureus (Smith); format: cell-based, Staphylococcus aureus
Procedure: (§2) Minimal Inhibitory Concentration (MIC) determinations. […] Each drug is evaluated at five concentrations, with five data points at each dilution. MIC values (μg/ml) were determined against actively growing cultures in Heart-Brain Infusion (HBI) medium. Cell growth in cultures supplemented with a test compound was calculated as a percent of control at OD 600 nm after 16 to 18 hours at 37° C. This plate format conserves test compound and provides precise, quantitative data with low standard deviation determinations.

[3] = tested on: E. coli; assay: MIC determination, E. coli; format: cell-based, Escherichia coli
Procedure: as §2

[4] = tested on: S. aureus; assay: MIC determination, S. aureus; format: cell-based, Staphylococcus aureus
Procedure: as §2

[5] = tested on: E. fecium; assay: MIC determination, E. fecium; format: cell-based, Enterococcus fecium
Procedure: as §1

[6] = tested on: B. subtilis; assay: MIC determination, B. subtilis; format: cell-based, Bacillus subtilis
Procedure: as §2

[7] = tested on: MSSA108 (methicillin sensitive S. aureus strain); assay: MIC determination, MSSA108; format: cell-based; conditions: Staphylococcus aureus, read-out: MIC (μg/ml) MSSA108
Procedure: as §2
Compounds were also tested for antibacterial activity against certain clinically relevant strains, e.g., methicillin sensitive (MSSA) and methicillin resistant (MRSA) strains of Staphylococcus aureus.

[8] = tested on: Staphylococcus aureus (Smith strain); assay: Protection of mice from lethal intraperitoneal infection, compound given intraperitoneally; format: in vivo; conditions: 15 minutes after infection
Procedure: FIG. 1B is a bar graph showing number of survivors in each group of five mice at 24 hours after intraperitoneal infection with 1×10^8 colony forming units (CFU) of Staphylococcus aureus (Smith strain) and followed 15 minutes post infection by administration of Compound 2 at a dose of 0 (Vehicle Control), 1, 3, and 10 mg of compound per kg of body weight. Vancomycin at a dose of 10 mg/kg of body weight served as a positive control for antibiotic activity. See text for details.
FIG. 2B is a bar graph showing number of survivors of a group of five mice at 24 hours after intraperitoneal infection with Staphylococcus aureus (Smith strain) as in FIG. 1B, except that Compound 10 was administered to each animal at 0, 0.1, 0.3, 1.0, 3.0, and 10 mg/kg body weight at 15 minutes post infection. Controls were the same as in FIG. 1B. See text for details.
FIG. 3B is a bar graph showing number of survivors in each group of five mice at 24 hours after intraperitoneal infection with Staphylococcus aureus (Smith strain) as in FIG. 1, except that 15 minutes after infection, the mice in each group received a dose of 0.5 mg/kg of body weight of compound 10, 4, 5, 6, 7, 8, or 12. Controls were the same as in FIG. 1. See text for details.
(§3) Swiss Webster mice, ca. 20 g each, were infected with Staphylococcus aureus (Smith strain) by the intraperitoneal route. Test compounds (2, 4, 5, 6, 7, 8, 10, 12) were dissolved in 10% dimethylsulfoxide in peanut oil to a concentration of 2 mg/ml. Vancomycin was used as positive control drug (i.e., protection from lethal infection). Fifteen minutes after infection, test compounds, vancomycin, or vehicle alone were given intraperitoneally to groups of five mice each. Animals were monitored for three days, and the number of mice surviving was tabulated for each treatment.

[9] = tested on: enterococci or staphylococci strains, including MRSA and VRE strains; assay: In vivo activity of Compound 70 against intraperitoneal challenge, overall statement; conditions: mice; administration from distant parenteral sites (i.e., iv, sc, or im)
Procedure: (§4) Using the same basic procedure as described above, the in vivo efficacy of Compound 70 was also evaluated at various doses in mice infected with S. aureaus (Smith), MRSA 1094, Enterococcus faecalis, or vancomycin-resistant Enterococcus faecalis strain VRE 700802. […] Negative controls were mice infected that received no treatment. Mucin was employed as an adjuvant to facilitate bacterial infection in mice, where indicated.

[10] = target: T1, B. subtilis Pol IIIC (Bacillus subtilis, UniProt P13267); assay: Polymerase IIIC (Pol IIIC) assay, determination of Ki values; format: biochemical; conditions: Ki = concentration that reduces control polymerase activity by 50 percent
T1 construct: made in house
T1 sequence (P13267 whole entry): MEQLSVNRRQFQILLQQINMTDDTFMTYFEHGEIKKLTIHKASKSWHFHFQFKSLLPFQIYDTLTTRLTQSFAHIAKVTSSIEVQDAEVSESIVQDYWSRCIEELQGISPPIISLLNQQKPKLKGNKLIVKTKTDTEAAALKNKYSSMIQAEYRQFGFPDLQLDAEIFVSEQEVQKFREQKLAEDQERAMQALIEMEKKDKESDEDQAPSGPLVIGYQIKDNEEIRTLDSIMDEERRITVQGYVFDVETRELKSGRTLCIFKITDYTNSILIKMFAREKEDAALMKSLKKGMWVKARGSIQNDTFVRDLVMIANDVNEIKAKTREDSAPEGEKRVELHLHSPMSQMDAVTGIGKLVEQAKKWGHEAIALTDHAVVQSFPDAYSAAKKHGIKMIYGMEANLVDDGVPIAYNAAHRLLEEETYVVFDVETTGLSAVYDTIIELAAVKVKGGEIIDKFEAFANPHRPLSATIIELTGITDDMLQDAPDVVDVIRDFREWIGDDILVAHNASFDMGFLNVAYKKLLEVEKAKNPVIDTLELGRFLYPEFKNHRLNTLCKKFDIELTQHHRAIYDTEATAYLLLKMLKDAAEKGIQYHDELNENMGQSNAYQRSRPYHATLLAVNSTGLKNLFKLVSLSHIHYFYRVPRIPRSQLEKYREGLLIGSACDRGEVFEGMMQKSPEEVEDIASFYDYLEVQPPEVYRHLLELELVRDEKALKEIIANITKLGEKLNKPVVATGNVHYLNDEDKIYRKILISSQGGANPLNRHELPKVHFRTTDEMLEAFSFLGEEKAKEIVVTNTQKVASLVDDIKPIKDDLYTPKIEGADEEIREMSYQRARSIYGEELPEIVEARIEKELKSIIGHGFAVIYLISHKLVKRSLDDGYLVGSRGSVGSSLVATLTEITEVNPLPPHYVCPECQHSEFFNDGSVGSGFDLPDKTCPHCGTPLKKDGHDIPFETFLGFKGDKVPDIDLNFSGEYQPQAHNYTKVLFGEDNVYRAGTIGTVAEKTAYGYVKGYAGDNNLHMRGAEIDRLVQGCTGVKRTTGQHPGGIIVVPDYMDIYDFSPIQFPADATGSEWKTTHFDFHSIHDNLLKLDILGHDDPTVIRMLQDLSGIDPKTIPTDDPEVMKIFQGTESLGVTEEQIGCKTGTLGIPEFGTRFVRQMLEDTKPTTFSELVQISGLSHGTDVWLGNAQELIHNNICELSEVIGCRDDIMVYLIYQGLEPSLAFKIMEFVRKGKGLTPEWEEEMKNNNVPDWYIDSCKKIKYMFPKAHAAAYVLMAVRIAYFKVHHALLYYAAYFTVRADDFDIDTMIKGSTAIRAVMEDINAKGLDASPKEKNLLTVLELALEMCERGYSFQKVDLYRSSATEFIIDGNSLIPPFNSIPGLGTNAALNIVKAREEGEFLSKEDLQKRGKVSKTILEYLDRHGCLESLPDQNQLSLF
Procedure: Polymerase IIIC (Pol IIIC) assay. DNA polymerase activity (or inhibition thereof) was measured in a 96-well plate format. B. subtilis Pol IIIC was isolated as described by Hammond and Brown (Protein Expr. Purif., 3: 65-70 (1992)). Each 25 μl assay contained 30 mM Tris, pH 7.5, 10 mM magnesium acetate, 4 mM dithiothreitol, 20% glycerol, with 25 μM dATP, dCTP, dGTP and 10 μM dTTP (3H-labelled at 1.44 Ci/mmole) and 0.4 mg/ml activated calf thymus DNA as substrates, as described previously (see Barnes et al, op. cit). Assays were initiated by the addition of 0.025 to 0.06 units of enzyme 1 unit is the amount required to incorporate 250 pmoles of [^3H] dTMP in a standard assay), incubated for 10 minutes at 30° C. and terminated by the addition of 200 μl of cold 10% trichloroacetic acid (TCA), 10 mM sodium pyrophosphate. Precipitated labeled DNA was collected on glass fiber filter plates, washed, dried, and counted in a liquid scintillation counter.
Determination of Ki values. DNA polymerase activity was measured in a 96-well plate format in the absence of dGTP or dATP, depending on the structure of the test compound. Each 25 μl assay contained 30 mM Tris, pH 7.5, 10 mM magnesium acetate, 4 mM dithiothreitol, 20% glycerol, with 25 μM dATP, dCTP, and 10 μM dTTP (3H-labelled at 1.44 Ci/mmole) and 0.4 mg/ml activated calf thymus DNA as substrates, as described previously. To each well were added 2 μl of compound solution to give final concentrations ranging from 20-0.027 μg/ml in the assay. Assays were initiated by the addition of 0.025 to 0.06 units of enzyme (1 unit is the amount required to incorporate 250 pmoles of [^3H] dTMP in a standard assay), incubated for 10 minutes at 30° C. and terminated by the addition of 200 μl of cold 10% trichloroacetic acid, 10 mM sodium pyrophosphate. Precipitated labeled DNA was collected on glass fiber filter plates, washed, dried, and counted in a liquid scintillation counter. Ki is the concentration of test compound that reduces the control polymerase mc activity by 50 percent.

[11] = tested on: vancomycin-resistant Enterococcus faecalis strain VRE 700802; assay: In vivo efficacy of Compound 70 in mouse model, VRE 700802; conditions: mice, 3 × 10^8 CFU/mouse +5% Mucin; positive control, 100 mg/kg, t = 0
Procedure: as §3, §4

[12] = tested on: Enterococcus faecalis (ATCC 29212); assay: In vivo efficacy of Compound 70 in mouse model, Enterococcus faecalis; conditions: mice, 3 × 10^7 CFU/mouse +5% Mucin; positive control, 100 mg/kg, t = 0
Procedure: as §3, §4

[13] = Swiss Webster mice, dosage range 1-10 mg/kg body weight
[14] = HBI medium, 16 to 18 hours at 37° C.

Compound: 3-{5-[1-(1-ethyl-3-carboxy-4-oxo-6,8-difluoro-7-quinolyl)-3-(1,3-diazabicyclononyl)]pentyl}-6-(3-ethyl-4-methylanilino)uracil [Compound 88]
- MIC (μg/ml) E. fecalis ([1]; second table): 2.5 µg/mL
- MIC (μg/ml) S. a. (Smith) ([2]; second table): 1.25 µg/mL
- MIC (μg/ml) E. coil ([3]; second table): >20 µg/mL
- MIC (μg/ml) S. aureus ([4]; second table): 1.25 µg/mL
- MIC (μg/ml) E. fecium ([5]; second table): 5 µg/mL
- MIC (μg/ml) B. subtilis ([6]; second table): 0.625 µg/mL

Compound: CCc1cc(Nc2cc(=O)n(CCCCN3CCN(c4cc5c(cc4F)c(=O)c(C(=O)O)cn5CC)CC3)c(=O)[nH]2)ccc1C [Compound 1, 3-{4-[1-(1-ethyl-3-carboxy-4-oxo-6-fluoro-7-quinolyl)-4-piperazinyl]butyl}-6-(3-ethyl-4-methylanilino)uracil]
- MIC ([2]; Staphylococcus aureus, table of clinically relevant strains, read-out: MIC (μg/ml) S. aureus (Smith)): 0.313 µg/mL (≈ 0.506 µM)
- MIC [7]: 0.313 µg/mL (≈ 0.506 µM)
- MIC ([4]; Staphylococcus aureus, table of clinically relevant strains, read-out: MIC (μg/ml) S. aureus): 0.313 µg/mL (≈ 0.506 µM)

Compound: CCc1cc(Nc2cc(=O)n(CCCCN3CCN(c4cc5c(cc4F)c(=O)c(C(=O)O)cn5C4CC4)CC3)c(=O)[nH]2)ccc1C [Compound 2, 3-{4-[1-(1-cyclopropyl-3-carboxy-4-oxo-6-fluoro-7-quinolyl)-4-piperazinyl]butyl}-6-(3-ethyl-4-methylanilino)uracil]
- protection of infected mice (group of five) [8, 13]: protection was afforded all five infected mice

Compound: CCc1cc(Nc2cc(=O)n(CCCCN3CCN(c4cc5c(cc4F)c(=O)c(C(=O)O)cn5C4CC4)CC3)c(=O)[nH]2)ccc1C.CS(=O)(=O)O [Compound 10, 3-{4-[1-(1-cyclopropyl-3-carboxy-4-oxo-6-fluoro-7-quinolyl)-4-piperazinyl]butyl}-6-(3-ethyl-4-methylanilino)uracil methanesulfonate]
- infected mice protected from death (group of five) ([8]; dose 0.3 mg per kg body weight): one of five
- protection of infected mice (group of five) ([8]; dose of 1 mg/kg or higher): complete protection
- protection of infected mice (group of five) [8, 13]: provided protection in the same dosage range as Compound 2

Compound: CCc1cc(Nc2cc(=O)n(CCCCN3CCN(c4c(F)cc5c(=O)c(C(=O)O)cn(C6CC6)c5c4F)CC3C)c(=O)[nH]2)ccc1C (centres unmarked) [Compound 70, 3-{4-[1-(1-cyclopropyl-3-carboxy-4-oxo-6,8-difluoro-7-quinolyl)-4-(3-methylpiperazinyl)]butyl}-6-(3-ethyl-4-methylanilino)uracil]
- activity against intraperitoneal challenge [9]: dose-related activity

Compound: CCc1cc(Nc2ccc(NC(=O)N3CCN(c4cc5c(cc4F)c(=O)c(C(=O)O)cn5CC)CC3)c(=O)[nH]2)ccc1C [Compound 77, 3-{[1-(1-ethyl-3-carboxy-4-oxo-6-fluoro-7-quinolyl)-4-piperazinyl]carboxamido}-6-(3-ethyl-4-methylanilino)-2-pyridone]
- Ki ([10]; second table): 8 µM

Compound: CCc1cc(Nc2cc(=O)n(CCCCO)c(=O)[nH]2)ccc1C [HB-EMAU, reference compound]
- MIC (μg/ml) E. fecalis [1, 14]: 5 µg/mL (≈ 15.8 µM)
- MIC (μg/ml) S. aureus (Smith) [2, 14]: 5 µg/mL (≈ 15.8 µM)
- MIC (μg/ml) E. coli [3, 14]: >80 µg/mL
- MIC (μg/ml) S. aureus [4, 14]: 10 µg/mL (≈ 31.5 µM)
- MIC (μg/ml) E. fecium [5, 14]: 5 µg/mL (≈ 15.8 µM)
- MIC (μg/ml) B. subtilis [6, 14]: 1.25 µg/mL (≈ 3.94 µM)
- Ki [10]: 0.066 µM

Compound: O=C(O)c1cn(C2CC2)c2cc(N3CCNCC3)c(F)cc2c1=O [cflxn, ciprofloxacin]
- Ki (μM) Pol IIIC [10]: inactive
- % Survival at 72 hours [11]: 90% (9/10)**

Compound: CCn1cc(C(=O)O)c(=O)c2cc(F)c(N3CCNCC3)cc21 [nflxn, norfloxacin]
- Ki (μM) Pol IIIC [10]: inactive

Compound: CN[C@H](CC(C)C)C(=O)N[C@H]1C(=O)N[C@@H](CC(N)=O)C(=O)N[C@H]2C(=O)N[C@H]3C(=O)N[C@H](C(=O)N[C@H](C(=O)O)c4cc(O)cc(O)c4-c4cc3ccc4O)[C@H](O)c3ccc(c(Cl)c3)Oc3cc2cc(c3O[C@@H]2O[C@H](CO)[C@@H](O)[C@H](O)[C@H]2O[C@H]2C[C@](C)(N)[C@H](O)[C@H](C)O2)Oc2ccc(cc2Cl)[C@H]1O [vancomycin]
- % Survival at 72 hours [12]: 100% (10/10)**

— US6777420B2, “Heterocyclic antibacterial compounds” (Microbiotix, Inc., priority 2001, dated 2004)
